From patent US11999739B2, “Antimicrobials methods of making and using the same” (BIOVERSYS AG, priority 2016, dated 2024) come the findings set out here.

The test system of experiment [1] is Staphylococcus aureus (S. aureus) 11540 strain. Nature of the experiment: Standard microdilution MIC assay, S. aureus. The class given is cell-based. The procedure, abridged:
(§1)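 MICs obtained by CLSI-standard microdilution, quality-controlled with reference strains in parallel. Values reported as + or − relative to a 16 micrograms/mL cutoff.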

The test system of experiment [2] is Escherichia coli strain ATCC25922. Nature of the experiment: Standard microdilution MIC assay, E. coli. The experiment is classed as cell-based. An outline of the steps:
as §1
Background: In broth dilution the organism is exposed to a series of concentrations in liquid medium.

The term MIC denotes the lowest concentration that inhibits growth of the organism. Read a low MIC as inhibition by little substance.

Regarding `CC(=N)NCC[C@@H]1CCC[C@@H](c2ccc(-n3cc4cc(-c5cc(CCC[C@H](C)N)cc(Cl)c5F)[nH]c4nc3=O)cc2)N1CCn1ccnc1` [Compound 262], the MIC in experiment [1] and in experiment [2] was not above 16 µg/mL each time.
Turning to `CC(=N)NCC[C@@H]1CCC[C@@H](c2ccc(-n3cc4cc(-c5cc(CCC[C@H](C)N)cc(Cl)c5F)[nH]c4nc3=O)cc2)N1CCn1ccnc1C` [Compound 263], the MIC in experiment [1] and in experiment [2] was not above 16 µg/mL throughout.
For `C=C[C@H](NCCCNC(C)=N)c1ccc(-n2cc3cc(-c4cc(CCC[C@@H](N)C=C)cc(Cl)c4F)[nH]c3nc2=O)cc1` [Compound 265], the MIC in experiment [1] and in experiment [2] was not above 16 µg/mL each time.
As for `C=C[C@H](NCCCNC(C)=N)c1ccc(-n2cc3cc(-c4cc(CCC[C@@H](N)C5CC5)cc(Cl)c4F)[nH]c3nc2=O)cc1` [Compound 266], the MIC in experiment [1] and in experiment [2] was not above 16 µg/mL throughout.
As for `C=C[C@H](NCCCNC(C)=N)c1ccc(-n2cc3cc(-c4cc(CCCC(C)(C)N)cc(Cl)c4F)[nH]c3nc2=O)cc1` [Compound 267], the MIC in experiment [1] and in experiment [2] was not above 16 µg/mL throughout.
For `C=C[C@H](NCCCNC(C)=N)c1ccc(-n2cc3cc(-c4cc(CCC[C@@H](N)COC)cc(OC(F)(F)F)c4F)[nH]c3nc2=O)cc1` [Compound 268], the MIC in experiment [1] and in experiment [2] was not above 16 µg/mL in each case.
Take `CC(=N)NCC[C@@H]1CSC[C@@H](c2ccc(-n3cc4cc(-c5cc(CCC[C@@H](N)C6CC6)cc(Cl)c5F)[nH]c4nc3=O)cc2)N1` [Compound 269]: the MIC in experiment [1] and in experiment [2] was not above 16 µg/mL in each case.
`COC[C@H](N)CCCc1cc(OC(F)(F)F)c(F)c(-c2cc3cn(-c4ccc([C@@H]5CSC[C@@H](CCNC(C)=N)N5)cc4)c(=O)nc3[nH]2)c1` [Compound 270]: the MIC in experiment [1] and in experiment [2] was not above 16 µg/mL in each case.
For the compound `CC(=N)NCC[C@@H]1CSC[C@@H](c2ccc(-n3cc4cc(-c5cc(CCC[C@H](C)N)cc(Cl)c5F)[nH]c4nc3=O)cc2)N1` [Compound 271], the MIC in experiment [1] and in experiment [2] was not above 16 µg/mL throughout.
Regarding `C=C[C@H](N)CCCc1cc(Cl)c(F)c(-c2cc3cn(-c4ccc([C@@H]5CCC[C@@H](CCNC(C)=N)N5)c(S(C)(=O)=O)c4)c(=O)nc3[nH]2)c1` [Compound 272], the MIC in experiment [1] and in experiment [2] was not above 16 µg/mL in each case.
With `CC(=N)NCC[C@@H]1CCC[C@@H](c2ccc(-n3cc4cc(-c5cc(CCC[C@@H](N)C6CC6)cc(Cl)c5F)[nH]c4nc3=O)cc2S(C)(=O)=O)N1` [Compound 273], the MIC in experiment [1] and in experiment [2] was not above 16 µg/mL in each case.
As to `C=C[C@H](N)CCCc1cc(Cl)c(F)c(-c2cc3cn(-c4cc(F)c([C@@H]5CCC[C@@H](CCNC(C)=N)N5)c(SC)c4)c(=O)nc3[nH]2)c1` [Compound 274], the MIC in experiment [1] and in experiment [2] was not above 16 µg/mL each time.
Turning to `CSc1cc(-n2cc3cc(-c4cc(CCC[C@@H](N)C5CC5)cc(Cl)c4F)[nH]c3nc2=O)cc(F)c1[C@@H]1CCC[C@@H](CCNC(C)=N)N1` [Compound 275], the MIC in experiment [1] and in experiment [2] was not above 16 µg/mL each time.
`CSC[C@H](N)CCCc1cc(Cl)c(F)c(-c2cc3cn(-c4ccc([C@@H]5CCC[C@@H](CCNC(C)=N)N5)cc4)c(=O)nc3[nH]2)c1` [Compound 276]: the MIC in experiment [1] and in experiment [2] was not above 16 µg/mL in each case.
With `COCCN1[C@H](CCNC(C)=N)CCC[C@H]1c1ccc(-n2cc3cc(-c4cc(CCC[C@H](C)N)cc(Cl)c4F)[nH]c3nc2=O)cc1` [Compound 277], the MIC in experiment [1] and in experiment [2] was not above 16 µg/mL throughout.
`CC(=N)NCC[C@@H]1CCC[C@@H](c2ccc(-n3cc4cc(-c5cc(CCC[C@H](C)N)cc(Cl)c5F)[nH]c4nc3=O)cc2)N1Cc1cocn1` [Compound 278]: the MIC in experiment [1] and in experiment [2] was not above 16 µg/mL each time.
In the case of `CC(=N)NCC[C@@H]1CCC[C@@H](c2c(F)cc(-n3cc4cc(-c5cc(CCC[C@@H](N)CF)cc(Cl)c5F)[nH]c4nc3=O)cc2F)N1` [Compound 279], the MIC in experiment [1] and in experiment [2] was not above 16 µg/mL each time.
As for `COC[C@H](N)CCCc1cc(OC(F)(F)F)c(F)c(-c2cc3cn(-c4cc(F)c([C@@H]5CCC[C@@H](CCNC(C)=N)N5)c(F)c4)c(=O)nc3[nH]2)c1` [Compound 280], the MIC in experiment [1] and in experiment [2] was not above 16 µg/mL each time.
Consider `CC(=N)NCC[C@@H]1CCC[C@@H](c2c(F)cc(-n3cc4cc(-c5cc(CCC[C@@H](N)CO)cc(Cl)c5F)[nH]c4nc3=O)cc2F)N1` [Compound 281], for which the MIC in experiment [1] and in experiment [2] was not above 16 µg/mL in each case.
Take `CC(=N)NCC[C@@H]1CCC[C@@H](c2c(F)cc(-n3cc4cc(-c5cc(CCC[C@H](C)N)cc(Cl)c5F)[nH]c4nc3=O)cc2N2CCOCC2)N1` [Compound 282]: the MIC in experiment [1] and in experiment [2] was not above 16 µg/mL each time.
With `CN=C(C)NCC[C@@H]1CCC[C@@H](c2ccc(-n3cc4cc(-c5cc(CCC[C@H](C)N)cc(Cl)c5F)[nH]c4nc3=O)cc2)N1` [Compound 283], the MIC in experiment [1] and in experiment [2] was not above 16 µg/mL throughout.
For `CC(=N)NCC[C@@H]1CCC[C@@H](c2ccc(-n3cc4cc(-c5cc(CCC[C@@H](N)CS(C)(=O)=O)cc(Cl)c5F)[nH]c4nc3=O)cc2)N1` [Compound 284], the MIC in experiment [1] and in experiment [2] was not above 16 µg/mL in each case.
Take `CC(=N)NCC[C@@H]1CCC[C@@H](c2c(F)cc(-n3cc4cc(-c5cc(CCC[C@@H](N)C6CC6)cc(C(F)(F)F)c5)[nH]c4nc3=O)cc2F)N1` [Compound 285]: the MIC in experiment [1] and in experiment [2] was not above 16 µg/mL throughout.
As to `CSc1cc(-n2cc3cc(-c4cc(CCC[C@@H](N)C5CC5)cc(C(F)(F)F)c4)[nH]c3nc2=O)cc(F)c1[C@@H]1CCC[C@@H](CCNC(C)=N)N1` [Compound 286], the MIC in experiment [1] and in experiment [2] was not above 16 µg/mL each time.
On to `CC(=N)NCC[C@@H]1CCC[C@@H](c2ccc(-n3cc4cc(-c5ccc(C(F)(F)F)c(CCC[C@H](C)N)c5)[nH]c4nc3=O)cc2)N1` [Compound 287], for which the MIC in experiment [1] and in experiment [2] was not above 16 µg/mL throughout.
Turning to `CC(=N)NCC[C@@H]1CCC[C@@H](c2ccc(-n3cc4cc(-c5cc(CCC[C@H](C)N)cc(Cl)c5F)[nH]c4nc3=O)cc2)N1Cc1c(C)ncn1C` [Compound 288], the MIC in experiment [1] and in experiment [2] was not above 16 µg/mL each time.
Take `CC(=N)NCC[C@@H]1CCC[C@@H](c2ccc(-n3cc4cc(-c5cc(CCC[C@@H](N)CN)cc(Cl)c5F)[nH]c4nc3=O)cc2)N1` [Compound 289]: the MIC in experiment [1] and in experiment [2] was not above 16 µg/mL each time.
In the case of `COC(=O)c1ccc(-c2cc3cn(-c4ccc([C@@H]5CCC[C@@H](CCNC(C)=N)N5)cc4)c(=O)nc3[nH]2)cc1CCC[C@H](C)N` [Compound 291], the MIC in experiment [1] and in experiment [2] was not above 16 µg/mL each time.
Take `CSc1cc(-n2cc3cc(-c4cc(CCC[C@H](C)N)cc(C(F)(F)F)c4)[nH]c3nc2=O)ccc1[C@@H]1CCC[C@@H](CCNC(C)=N)N1CCCF` [Compound 292]: the MIC in experiment [1] and in experiment [2] was not above 16 µg/mL each time.
For the compound `CC(=N)NCC[C@@H]1CCC[C@@H](c2ccc(-n3cc4cc(-c5cc(CCC[C@H](C)N)cc(C(F)(F)F)c5)[nH]c4nc3=O)cc2)N1CCCF` [Compound 293], the MIC in experiment [1] and in experiment [2] was not above 16 µg/mL throughout.
